IC50, Kd and EC50 data for ten molecules are collected here from ChEMBL document CHEMBL4190171, “Chemical probes and inhibitors of bromodomains outside the BET family” (Medchemcomm, 2016).

The structures appear in SMILES notation.

The target of assay [1] is Cellular tumor antigen p53 (Homo sapiens, UniProt P04637). As to the kind of experiment: Inhibition of p53-induced (unknown origin) expressed in human RKO cells assessed as reduction in p53-induced p21 activation measured after 24 hrs by luciferase reporter gene assay. The class given is cell-based.
For assay [2], the system named is THP-1. Briefly: Inhibition of LPS-stimulated IL-6 secretion in human THP1 cells by ELISA. The class given is functional, cell-based. For orientation: In an ELISA, binding on a coated surface is turned into a signal by an enzyme label.
Assay [3] concerns the target T1, CREB-binding protein (Homo sapiens, UniProt Q92793). Briefly: Binding affinity to recombinant human His-tagged CBP bromodomain expressed in bacterial expression system by isothermal titration calorimetry. In general terms: In ITC the heat of successive injections is recorded.
The target in assay [4] is T2, Histone acetyltransferase p300 (Homo sapiens, UniProt Q09472). Briefly: Binding affinity to recombinant human His-tagged EP300 expressed in bacterial expression system by isothermal titration calorimetry.
Assay [5] deals with T3, Bromodomain-containing protein 4 (Homo sapiens, UniProt O60885). Briefly: Binding affinity to human BRD4 bromodomain1 by isothermal titration calorimetry.
The target in assay [6] is T1, CREB-binding protein. As to the kind of experiment: Binding affinity to C-terminally biotinylated N-terminal His10-tagged human CBP bromodomain (R1081 to G1198 residues) expressed in Escherichia coli BL21(DE3) by isothermal titration calorimetry.
Assay [7] deals with T2, Histone acetyltransferase p300. As to the kind of experiment: Binding affinity to EP300 (unknown origin) by isothermal titration calorimetry.
The target in assay [8] is T3, Bromodomain-containing protein 4. As to the kind of experiment: Displacement of Halo-tagged histone H3.3 from Nluc-BRD4 (unknown origin) expressed in HEK293 cells using furimazine as substrate pretreated for 18 hrs followed by substrate addition measured within 5 mins by NanoBRET assay. The class given is cell-based.
For assay [9] the target is unchanged. Briefly: Binding affinity to recombinant BRD4 bromodomain1 (unknown origin) by isothermal titration calorimetry.
For assay [10], the target named is T4, Histone acetyltransferase KAT2B (Homo sapiens, UniProt Q92831).
The test system of assay [11] is Human immunodeficiency virus 1. As to the kind of experiment: Antiviral activity against HIV1 3B infected in human C8166 cells assessed as reduction in virus-induced cytopathic effect by measuring syncytium formation after 3 days by inverted microscopic analysis. The class given is functional, organism-based. The following applies: Human immunodeficiency virus 1, 3B, C8166, 72 h. (Damage to the host cells serves as the signal in cytopathic effect assays.)

The target of assay [12] is T4, Histone acetyltransferase KAT2B. The source holds these as a separate data set.
Description: Displacement of biotinylated small molecule ligand from His/FLAG-tagged PCAF bromodomain (719 to 832 residues) (unknown origin) after 15 mins by AlphaLisa method
For assay [13], the target named is T5, ATPase family AAA domain-containing protein 2B (Homo sapiens, UniProt Q9ULI0).
T5 sequence (Q9ULI0 whole entry): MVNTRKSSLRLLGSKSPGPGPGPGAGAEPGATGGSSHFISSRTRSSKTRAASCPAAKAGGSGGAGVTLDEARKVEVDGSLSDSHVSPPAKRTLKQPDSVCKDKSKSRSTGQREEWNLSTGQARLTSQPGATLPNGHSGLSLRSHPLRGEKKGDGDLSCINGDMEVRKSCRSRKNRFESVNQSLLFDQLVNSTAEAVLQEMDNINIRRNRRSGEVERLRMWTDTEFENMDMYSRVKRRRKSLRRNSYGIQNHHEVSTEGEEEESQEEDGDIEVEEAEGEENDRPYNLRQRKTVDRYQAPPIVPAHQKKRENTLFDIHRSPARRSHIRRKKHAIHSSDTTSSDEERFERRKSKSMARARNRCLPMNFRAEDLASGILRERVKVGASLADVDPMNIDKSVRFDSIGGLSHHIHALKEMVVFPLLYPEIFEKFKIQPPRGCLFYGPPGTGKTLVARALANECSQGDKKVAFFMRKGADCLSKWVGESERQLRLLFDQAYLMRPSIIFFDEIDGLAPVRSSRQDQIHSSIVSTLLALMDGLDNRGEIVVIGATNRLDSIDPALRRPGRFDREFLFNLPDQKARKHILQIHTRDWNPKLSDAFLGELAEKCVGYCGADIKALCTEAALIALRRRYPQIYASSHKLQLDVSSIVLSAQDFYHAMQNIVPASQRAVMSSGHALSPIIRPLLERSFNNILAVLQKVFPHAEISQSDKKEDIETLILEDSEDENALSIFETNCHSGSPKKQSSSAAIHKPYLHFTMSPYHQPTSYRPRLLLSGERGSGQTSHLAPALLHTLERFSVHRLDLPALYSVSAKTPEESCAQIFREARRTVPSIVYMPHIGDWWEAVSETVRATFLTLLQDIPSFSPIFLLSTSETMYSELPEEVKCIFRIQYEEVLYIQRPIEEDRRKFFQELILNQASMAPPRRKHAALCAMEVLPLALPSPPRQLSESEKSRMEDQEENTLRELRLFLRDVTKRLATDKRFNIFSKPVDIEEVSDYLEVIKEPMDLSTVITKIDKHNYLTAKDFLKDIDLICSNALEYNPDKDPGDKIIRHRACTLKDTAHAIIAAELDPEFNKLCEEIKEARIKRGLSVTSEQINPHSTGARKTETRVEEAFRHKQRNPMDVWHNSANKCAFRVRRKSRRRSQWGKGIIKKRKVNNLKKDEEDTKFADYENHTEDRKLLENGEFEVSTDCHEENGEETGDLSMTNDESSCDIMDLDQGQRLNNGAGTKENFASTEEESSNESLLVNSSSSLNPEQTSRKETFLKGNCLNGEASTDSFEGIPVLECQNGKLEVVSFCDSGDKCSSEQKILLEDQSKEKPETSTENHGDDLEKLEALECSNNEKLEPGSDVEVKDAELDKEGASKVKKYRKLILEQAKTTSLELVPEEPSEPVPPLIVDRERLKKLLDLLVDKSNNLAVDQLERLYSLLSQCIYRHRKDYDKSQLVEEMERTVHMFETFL
As to the kind of experiment: Binding affinity to partial length human ATAD2B (Q955 to R1082) expressed in bacterial expression system by Bromoscan method.

Assay [14] addresses T1, CREB-binding protein. As to the kind of experiment: Inhibition of CBP bromodomain (unknown origin) using H3K56Ac peptide as substrate by Alphascreen assay.
The target of assay [15] is T1, CREB-binding protein. Briefly: Binding affinity to CBP bromodomain (unknown origin) by tryptophan fluorescence assay.

One may read the IC50 as the concentration at which inhibition is half-maximal. The Kd is the equilibrium constant for the complex coming apart. The EC50 is the concentration giving half of the maximal effect.

T1 sequence (Q92793 whole entry): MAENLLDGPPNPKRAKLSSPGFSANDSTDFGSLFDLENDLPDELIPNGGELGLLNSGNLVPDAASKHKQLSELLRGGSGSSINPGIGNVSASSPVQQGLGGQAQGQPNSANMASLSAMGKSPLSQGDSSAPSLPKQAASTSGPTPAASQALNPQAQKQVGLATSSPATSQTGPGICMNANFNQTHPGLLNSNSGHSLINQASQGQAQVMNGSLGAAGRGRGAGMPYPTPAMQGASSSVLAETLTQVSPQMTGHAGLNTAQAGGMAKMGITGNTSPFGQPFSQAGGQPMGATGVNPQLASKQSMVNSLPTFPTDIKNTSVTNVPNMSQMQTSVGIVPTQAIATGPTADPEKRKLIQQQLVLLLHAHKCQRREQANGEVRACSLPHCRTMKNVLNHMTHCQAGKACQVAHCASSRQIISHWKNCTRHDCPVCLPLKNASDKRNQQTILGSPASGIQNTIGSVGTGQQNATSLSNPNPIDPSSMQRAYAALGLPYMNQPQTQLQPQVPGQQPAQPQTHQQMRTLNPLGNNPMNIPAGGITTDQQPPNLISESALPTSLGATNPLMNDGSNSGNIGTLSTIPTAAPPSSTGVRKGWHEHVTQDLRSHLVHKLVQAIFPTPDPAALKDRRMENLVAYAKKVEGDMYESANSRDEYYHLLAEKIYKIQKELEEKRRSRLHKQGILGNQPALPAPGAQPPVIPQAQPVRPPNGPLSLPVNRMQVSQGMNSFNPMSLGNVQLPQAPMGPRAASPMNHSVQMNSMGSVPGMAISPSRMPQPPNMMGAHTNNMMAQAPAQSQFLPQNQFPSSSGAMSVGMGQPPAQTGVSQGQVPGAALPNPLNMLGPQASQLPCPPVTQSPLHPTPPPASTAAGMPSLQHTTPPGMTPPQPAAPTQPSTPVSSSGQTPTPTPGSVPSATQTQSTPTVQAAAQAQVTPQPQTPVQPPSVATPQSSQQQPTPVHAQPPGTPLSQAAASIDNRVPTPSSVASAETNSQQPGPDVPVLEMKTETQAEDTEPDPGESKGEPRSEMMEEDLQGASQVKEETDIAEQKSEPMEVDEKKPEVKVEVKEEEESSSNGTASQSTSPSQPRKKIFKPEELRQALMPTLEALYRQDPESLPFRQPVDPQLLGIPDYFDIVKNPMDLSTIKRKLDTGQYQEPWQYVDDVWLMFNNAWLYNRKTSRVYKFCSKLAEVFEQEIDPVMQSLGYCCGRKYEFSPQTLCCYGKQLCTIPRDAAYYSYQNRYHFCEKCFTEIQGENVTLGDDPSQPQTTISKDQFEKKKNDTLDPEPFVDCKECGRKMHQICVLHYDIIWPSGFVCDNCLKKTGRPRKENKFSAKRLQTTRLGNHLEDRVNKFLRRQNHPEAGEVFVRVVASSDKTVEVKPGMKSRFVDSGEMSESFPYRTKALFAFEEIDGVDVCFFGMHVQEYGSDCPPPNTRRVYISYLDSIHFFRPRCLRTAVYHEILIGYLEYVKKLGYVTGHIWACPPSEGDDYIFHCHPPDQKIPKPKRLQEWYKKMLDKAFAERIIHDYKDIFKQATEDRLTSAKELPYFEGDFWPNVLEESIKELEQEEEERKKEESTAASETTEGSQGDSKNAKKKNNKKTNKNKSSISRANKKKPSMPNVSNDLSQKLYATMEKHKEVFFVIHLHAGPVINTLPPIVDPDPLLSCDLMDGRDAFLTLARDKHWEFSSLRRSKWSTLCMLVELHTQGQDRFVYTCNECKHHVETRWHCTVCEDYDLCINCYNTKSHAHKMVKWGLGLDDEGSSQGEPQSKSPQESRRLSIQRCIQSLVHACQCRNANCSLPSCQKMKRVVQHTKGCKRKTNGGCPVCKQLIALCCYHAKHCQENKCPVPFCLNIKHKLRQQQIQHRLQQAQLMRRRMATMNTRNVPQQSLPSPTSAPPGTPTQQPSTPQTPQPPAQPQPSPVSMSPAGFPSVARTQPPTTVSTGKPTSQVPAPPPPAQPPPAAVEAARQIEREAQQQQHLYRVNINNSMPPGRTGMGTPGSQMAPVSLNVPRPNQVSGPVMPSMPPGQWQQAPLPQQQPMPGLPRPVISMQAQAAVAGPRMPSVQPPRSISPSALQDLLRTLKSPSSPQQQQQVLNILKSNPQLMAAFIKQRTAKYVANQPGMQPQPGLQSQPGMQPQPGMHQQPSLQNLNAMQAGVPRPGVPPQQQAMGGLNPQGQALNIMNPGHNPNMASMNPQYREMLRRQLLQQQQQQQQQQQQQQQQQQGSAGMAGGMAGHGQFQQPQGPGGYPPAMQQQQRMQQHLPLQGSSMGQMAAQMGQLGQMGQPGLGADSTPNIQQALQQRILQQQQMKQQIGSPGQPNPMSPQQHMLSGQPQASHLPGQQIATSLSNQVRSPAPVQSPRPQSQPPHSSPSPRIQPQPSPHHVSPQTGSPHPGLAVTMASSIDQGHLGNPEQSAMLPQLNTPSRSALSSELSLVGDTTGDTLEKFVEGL
T4 sequence (Q92831 whole entry): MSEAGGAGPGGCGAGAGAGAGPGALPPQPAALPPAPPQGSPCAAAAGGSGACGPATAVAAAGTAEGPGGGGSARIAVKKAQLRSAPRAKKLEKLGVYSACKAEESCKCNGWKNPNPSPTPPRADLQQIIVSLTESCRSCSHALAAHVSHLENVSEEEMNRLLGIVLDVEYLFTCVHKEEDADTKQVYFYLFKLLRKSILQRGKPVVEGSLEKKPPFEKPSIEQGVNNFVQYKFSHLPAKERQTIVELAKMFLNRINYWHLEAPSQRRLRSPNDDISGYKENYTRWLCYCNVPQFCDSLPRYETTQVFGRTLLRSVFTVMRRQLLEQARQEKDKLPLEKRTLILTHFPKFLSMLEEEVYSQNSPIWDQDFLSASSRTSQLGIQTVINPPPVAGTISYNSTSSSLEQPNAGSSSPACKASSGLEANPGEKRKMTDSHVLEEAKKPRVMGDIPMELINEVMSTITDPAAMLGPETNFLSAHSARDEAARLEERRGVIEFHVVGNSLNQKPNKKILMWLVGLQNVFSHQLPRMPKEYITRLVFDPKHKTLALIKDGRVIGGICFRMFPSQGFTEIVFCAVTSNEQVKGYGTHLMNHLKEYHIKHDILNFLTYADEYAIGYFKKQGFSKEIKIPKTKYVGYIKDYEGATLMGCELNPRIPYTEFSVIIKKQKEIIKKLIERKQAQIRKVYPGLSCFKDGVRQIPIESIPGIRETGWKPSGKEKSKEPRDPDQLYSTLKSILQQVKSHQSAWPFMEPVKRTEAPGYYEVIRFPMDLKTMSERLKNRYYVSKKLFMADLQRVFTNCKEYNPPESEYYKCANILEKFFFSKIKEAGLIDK
Cellular tumor antigen p53, sequence (P04637 whole entry): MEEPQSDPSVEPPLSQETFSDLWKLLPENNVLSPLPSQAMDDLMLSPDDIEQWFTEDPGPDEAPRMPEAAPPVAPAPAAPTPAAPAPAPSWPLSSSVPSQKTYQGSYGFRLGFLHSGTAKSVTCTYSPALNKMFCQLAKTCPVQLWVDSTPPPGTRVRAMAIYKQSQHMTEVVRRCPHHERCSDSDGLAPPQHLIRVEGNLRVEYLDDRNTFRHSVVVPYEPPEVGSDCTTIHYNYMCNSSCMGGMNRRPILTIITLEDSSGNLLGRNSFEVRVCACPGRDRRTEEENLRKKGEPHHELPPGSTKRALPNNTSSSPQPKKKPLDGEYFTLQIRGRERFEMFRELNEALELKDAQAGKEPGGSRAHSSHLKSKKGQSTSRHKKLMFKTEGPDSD

As to `COc1ccc(CCc2nc3cc(-c4c(C)noc4C)ccc3n2C[C@H](C)N2CCOCC2)cc1Cl`, the IC50 in assay [1] worked out at 1.54 µM.
For `Cc1cc(=O)n(C)c2cc(N3C(=O)CC[C@H](NS(=O)(=O)CC(C)C)[C@H]3c3ccc(Cl)cc3)ccc12`, the IC50 in assay [2] is < 10 µM.
Turning to `Cc1noc(C)c1-c1ccc2c(c1)nc(CCc1ccccc1)n2CCN1CCOCC1`, the values for the Kd in assay [3] and in [4] were 0.32 µM and 0.35 µM, respectively.
Consider `CCC(=O)N1CCOc2c(cc(-c3ccc(OC)c(OC)c3)cc2OC[C@H]2CCCN(C)C2)C1`, for which the dissociation constant (Kd) in assay [5] is 5.59 µM; in assay [6] it was 0.151 to 0.208 µM; in [7] it was 0.167 to 0.343 µM. In addition, the IC50 in assay [8] came out at 0.6 µM.
Regarding `CCCOc1ccc(CCc2nc3cc(-c4c(C)noc4C)ccc3n2CCN2CCOCC2)cc1`, the Kd in assay [9] turned out to be 20 µM.
As for `NCCCNCc1ccc(NCCCN)[n+]([O-])c1`, the IC50 in [10] is 0.93 µM. Moreover, in assay [11], the EC50 stood at 11.5 µM.
For the molecule `C[C@H](Nc1nn(C)c(=O)n(C)c1=O)[C@H](c1ccc(S(=O)(=O)c2ccccc2)cc1)N(C)C`, in assay [12], the IC50 amounted to 0.07 µM.
As to `CO[C@H]1CNC[C@@H](OCC2CCC(F)(F)CC2)[C@@H]1Nc1ncc(-c2cncc(C)c2)c2cc(C)c(=O)[nH]c12`, the Kd in assay [13] was 0.001 µM.
In assay [14], `CC1Nc2ccccc2NC1=O` (stereo not given) yielded an IC50 of 1900 µM.
In assay [15], `CC(=O)NCCCC[C@@H]1NC(=O)[C@H](Cc2c[nH]c3ccccc23)NC(=O)[C@@H](NC(C)=O)CSSCC(C(=O)N[C@@H](Cc2ccccc2)C(=O)N[C@@H](CCCCN)C(N)=O)NC(=O)[C@H](CC(C)C)NC(=O)[C@H](CCCCN)NC1=O` (single isomer, unassigned) registered an equilibrium dissociation constant (Kd) of 8 µM.
